The text below walks through data of patent publication US20250186597A1, “TARGETED IMMUNE ACTIVATION WITH IL-18 IMMUNOCYTOKINES” (BRIGHT PEAK THERAPEUTICS AG, priority 2023, published 2025).

Assay [1] deals with PD-1positive transduced NK-92 cells. As to the kind of experiment: IL-18BP mediated inhibition of IFN gamma secretion in PD-1 positive transduced NK-92 cells (Example 18). It is filed as cell-based, human. The procedure:
To characterize the resistance of anti-PD1-IL18 immunocytokines (IC) on PD-1 positive cells, the NK-92 cell line was used to generate a PD-1 expressing cell line and furthermore, to measure the inhibition of IFN[…] release upon incubation with IL-18 variants and ICs in the presence of increasing quantities of human IL-18BP.
On the day of experiment, parental PD-1^negative and PD-1^positive transduced cells were harvested and washed with PBS 1× and resuspended in medium (w/o IL-2) containing 1 ng/ml of recombinant human Interleukin-12 (SinoBiologicals, Cat #CT011-H08H). After counting, cells were seeded at 100 000 cells/well in a 384 well culture plate and incubated at 37° C./5% CO2. When indicated, cells were preincubated with anti-PD-1 antibody LZM-009 at 17 uM during 30 min at 37° C. […]
After 16-20 h incubation at 37° C./5% CO2, 5 μl of supernatant were carefully transferred to a 384 microwell OptiIPlate (Perkin Elmer; Cat #6007270) and Interferon-gamma (IFNγ) levels measured using the Human IFNγ AlphaLISA Assay Kit (Perkin Elmer, Cat #AL217C). […] AlphaLISA signal was then measured on an Enspire plate reader (Perkin Elmer) using 680 and 615 nm as excitation and emission wavelengths respectively. Half maximal inhibitory concentration (IC50) was calculated based on a variable slope, four parameter analysis using GraphPad PRISM software.

A further assay deals with NK92 cells. Description: IFN gamma secretion assay in NK92 cells (Example 10). To be noted: IFNγ secretion, 1 ng/ml IL-12. The assay is classed as cell-based, human. As for the experimental part:
The IFNγ-secretion stimulating activity of the unconjugated IL-18 variants and corresponding IL-18 immunocytokines was evaluated on NK92 cell line. The NK cell line NK-92 derived from a patient with lymphoma (ATCC, Cat #CRL-2407) was cultured in aMEM medium supplemented with 12.5% FCS, 12.5% horse serum (HS), 50 uM B-mercaptoEthanol, and 2 ng/ml of recombinant Human Interleukin-2 (IL-2).
On the day of experiment, cells were harvested and washed with aMEM medium without IL-2 and resuspended in medium (w/o IL-2) containing 1 ng/ml of recombinant human Interleukin-12 (SinoBiologicals, Cat #CT011-H08H). After counting, cells were seeded at 100 000 cells/well in a 384 well titer plate and incubated at 37° C./5% CO2. Sixteen 4-fold serial dilutions of IL-18 analytes were prepared in aMEM medium—1 ng/ml IL-12 and were added to the NK-92 cells. […]
After 16-20 h incubation at 37° C./5% CO2, 5 μl of supernatant were carefully transferred to a 384 microwells OPTIPlate (Perkin Elmer; Cat #6007270) and Interferon-gamma (IFNγ) levels measured using the Human IFNγ AlphaLISA Assay Kit (Perkin Elmer, Cat #AL217C). […] AlphaLisa signal was then measured on an Enspire plate reader (Perkin Elmer) using 680 and 615 nm as excitation and emission wavelengths respectively. Half maximal effective concentration (EC50) was calculated based on a variable slope, four parameter analysis using GraphPad PRISM software.

As a reminder, the IC50 is the concentration needed to halve the response being measured. High values mean lower potency, low ones higher potency. One may read the EC50 as the concentration at which the effect is half-maximal. Low readings indicate higher potency in that assay, high ones lower potency in that assay. The substance “SEQ ID NO: 1: Native sequence of human IL-18 (bioactive form) [reference compound]” came in with an IC50 in assay [1] (IL-18BP-mediated inhibition of IFNγ secretion, IL-18 analyte 1 nM) of 2.67 nM. In assay [1] (NK-92 cells), the “PD-1^pos/PD-1^neg IC50 ratio” value is 1.2. For the same substance, the response in the assay with NK92 cells was half-maximal at 0.374 nM (EC50).
